In paper PMC7744269 (Bioorganic & medicinal chemistry, 2010):
pIC50: −log10 of the molar value.

Key:
[1] = test system: viruses (HIV, Vaccinia virus, Cowpox virus, etc.); settings: previously reported; cited from earlier work
[2] = target: T1, Ureaplasma parvum thymidine kinase (UpTK) (Ureaplasma parvum serovar 3, UniProt Q9PPP5); test: Phosphate transfer assay with [γ-32P]-ATP; format: biochemical; settings: for Vmax values of UpTK, times lower than with AZT: compared with AZT
T1 sequence (Q9PPP5 1-223): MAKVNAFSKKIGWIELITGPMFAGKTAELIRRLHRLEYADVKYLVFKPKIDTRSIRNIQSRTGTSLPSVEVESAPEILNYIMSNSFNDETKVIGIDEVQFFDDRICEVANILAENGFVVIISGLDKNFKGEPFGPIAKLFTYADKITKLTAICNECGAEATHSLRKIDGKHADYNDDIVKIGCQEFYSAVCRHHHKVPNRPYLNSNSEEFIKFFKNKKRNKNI

[3] = target: T2, human thymidine kinase 1 (hTK1) (Homo sapiens, UniProt P04183); test: IC50 determination, DE-81 filter paper [3H]-dThd assay, hTK1; format: biochemical
T2 sequence (P04183 1-234): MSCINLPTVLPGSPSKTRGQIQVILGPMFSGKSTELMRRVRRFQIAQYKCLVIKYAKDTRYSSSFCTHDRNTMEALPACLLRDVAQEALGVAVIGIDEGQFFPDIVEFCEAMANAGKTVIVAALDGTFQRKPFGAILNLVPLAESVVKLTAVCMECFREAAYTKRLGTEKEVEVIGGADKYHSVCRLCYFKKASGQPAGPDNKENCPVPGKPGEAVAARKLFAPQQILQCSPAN

| SMILES | Antiviral activity [1] | Relative efficiency with UpTK ([2]; compared to dThd (set to 100%)) | Vmax values of UpTK, times lower than with AZT [2] | pIC50 [3] | Phosphorylation with UpTK compared to hTK1 (relative activity) ([2]; UpTK vs hTK1) |
| --- | --- | --- | --- | --- | --- |
| Cc1cn([C@H]2C[C@H](n3cc(CO)nn3)[C@@H](CO)O2)c(=O)[nH]c1=O [Compound 1, 3′-(4-Hydroxymethyl-1,2,3-triazol-1-yl)-3′-deoxythymidine] | devoid of significant antiviral activity | – | – | – | – |
| CCCc1cn([C@H]2C[C@H](n3cc(C)c(=O)[nH]c3=O)O[C@@H]2CO)nn1 [Compound 6, 3′-(4-Propyl-1,2,3-triazol-1-yl)-3′-deoxythymidine] | – | 1.6% | – | – | – |
| Cc1cn([C@H]2C[C@H](n3cc(-c4ccccc4)nn3)[C@@H](CO)O2)c(=O)[nH]c1=O [Compound 9, 3′-(4-Phenyl-1,2,3-triazol-1-yl)-3′-deoxythymidine] | devoid of significant antiviral activity | – | 3–4 | – | – |
| Cc1cn([C@H]2C[C@H](n3cc(-c4ccccn4)nn3)[C@@H](CO)O2)c(=O)[nH]c1=O [Compound 12, 3′-(4-(2-Pyridine)-1,2,3-triazole-1-yl)-2′-deoxythymidine] | devoid of significant antiviral activity | – | 3–4 | 4.30 to 4.40 | – |
| Cc1cn([C@H]2C[C@H](n3cc(-c4ccc(F)cc4)nn3)[C@@H](CO)O2)c(=O)[nH]c1=O [Compound 13, 3′-(4-(4-Fluorophenyl)-1,2,3-triazole-1-yl)-2′-deoxythymidine] | devoid of significant antiviral activity | – | 3–4 | – | five times more potent with UpTK than hTK1 |
